The target in test [1] is T1, mouse TAPP2 C-terminal PH domain (residues 174 to 425), GST fusion (Mus musculus, UniProt Q9ERS5).
T1 construct: made in house; host or cells: human embryonic kidney 293 cells (pEBG-2T)
Put plainly: Surface plasmon resonance (BIACore), GST fusion binding to phosphoinositide in supported lipid monolayer. The note with it: read-out: apparent Kd. The text has this: Cloning of PH domains and preparation of expression constructs. All the human and mouse EST's were obtained from the I.M.A.G.E. Consortium and sequenced. The plant EST (accession number T04439) encoding a full length clone of AtPH1 was obtained from the Arabidopsis Biological Research. Centre (Ohio University). The sequence of each EST was verified and the full length PH domain of each EST was amplified by PCR using the Hi-fidelity PCR system with primers designed to incorporate a Kozak site, an initiating ATG codon followed by a myc epitope tag and a stop codon after the PH domain. […]
(§1) Kinetic analyses of the interactions between the GST PH domain fusions and the polyphosphoinositides were made using surface plasmon resonance based procedures as described previously, with the following modifications. […] Data were analysed using the bimolecular interaction model and the global fitting feature of the BIAevaluation 3 software for several sensorgrams at different protein concentrations. […] The relative binding affinities of each protein relative to the binding of full length GST-TAPP1 to PtdIns(3,4)P2 were also calculated.

Another test concerns GST-DAPP1. The note with it: control; cited from earlier work.
Test [2] concerns the target T2, mouse TAPP2, full length (FL-TAPP2, accession AF286161), wild type, GST fusion (Mus musculus, UniProt Q9ERS5).
T2 construct: made in house; host or cells: human embryonic kidney 293 cells (pEBG-2T)
Description: Surface plasmon resonance (BIACore), GST fusion binding to phosphoinositide in supported lipid monolayer. As to conditions: supported phosphatidylcholine monolayers, 1:1 binding model, NB, no binding detected, read-out: Apparent Kd. As to the method:
(§2) Expression of GST-PH domains in human embryonic kidney 293 cells. […] For the expression of each construct, twenty 10 cm diameter dishes of 293 cells were cultured and each dish transfected with 5 μg of the pEBG-2T construct, using a modified calcium phosphate method. 36 h post-transfection, the cells were lysed in 1 ml of ice-cold Buffer A, the lysates pooled, centrifuged at 4° C. for 10 min at 13,000×g and the GST-fusion proteins were purified by affinity chromatography on glutathione-Sepharose and stored as described above.
(§3) Cloning TAPP1, TAPP2, FAPP1 and PEPP1. Full length human TAPP1, full length mouse TAPP2, partial mouse TAPP1, partial human TAPP2, and full length human and mouse FAPP1 sequences were deduced by sequencing the EST clones listed in Table 3. […] The constructs used to express full length and deletion mutants of TAPP1 and TAPP2 were generated by PCR, using as a template ESTs encoding full length human TAPP1 (accession number AI216176) and full length mouse TAPP2 (accession number AA111410). […]
as §1
(§4) We studied the specificity and affinity of interaction of the PH domains for phosphoinositide lipids using either a “protein-lipid overlay” assay (FIG. 2) or the more quantitative surface plasmon resonance based approach (Table 2). […] For the surface plasmon resonance based assay, the apparent Kd values of the GST PH domain fusion proteins resulting from their interaction with a supported lipid monolayer containing a low mole fraction of phosphoinositide, was determined (Table 2).

Test [3] deals with T3, human TAPP1, full length, mutant R28L (FL-TAPP1 [R28L]), GST fusion (Homo sapiens, UniProt Q9HB21, R28L/T320A).
T3 construct: wild type and mutant forms of full length (FL); made in house; host or cells: human embryonic kidney 293 cells (pEBG-2T)
The test is described as above. The note with it: supported phosphatidylcholine monolayers, 1:1 binding model, read-out: Apparent Kd. The procedure: as §2, §3, §1, §4

In test [4] the target is T4, human TAPP1, full length (FL-TAPP1, accession AF286160), wild type, GST fusion (Homo sapiens, UniProt Q9HB21, T320A).
T4 construct: made in house; host or cells: human embryonic kidney 293 cells (pEBG-2T)
The description is as above. The note with it: supported phosphatidylcholine monolayers, 1:1 binding model, NB, no binding detected, read-out: Apparent Kd. The procedure:
as §2, §3, §1, §4

Where “and” joins values, the source holds several entries; their conditions need not be identical. Equal values may be shown once.

T4 sequence (Q9HB21 whole entry T320A, the tested form may be a part): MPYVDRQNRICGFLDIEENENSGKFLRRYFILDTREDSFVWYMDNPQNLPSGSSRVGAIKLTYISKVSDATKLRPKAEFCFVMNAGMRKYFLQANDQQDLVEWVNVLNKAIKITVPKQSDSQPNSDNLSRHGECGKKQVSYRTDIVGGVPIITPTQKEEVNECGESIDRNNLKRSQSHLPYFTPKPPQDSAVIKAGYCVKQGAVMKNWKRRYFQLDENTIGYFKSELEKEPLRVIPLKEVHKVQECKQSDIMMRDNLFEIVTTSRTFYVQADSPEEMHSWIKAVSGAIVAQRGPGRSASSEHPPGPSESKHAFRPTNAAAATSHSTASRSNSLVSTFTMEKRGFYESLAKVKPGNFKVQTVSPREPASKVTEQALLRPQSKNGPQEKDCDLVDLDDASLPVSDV
T1 sequence (Q9ERS5 174-425): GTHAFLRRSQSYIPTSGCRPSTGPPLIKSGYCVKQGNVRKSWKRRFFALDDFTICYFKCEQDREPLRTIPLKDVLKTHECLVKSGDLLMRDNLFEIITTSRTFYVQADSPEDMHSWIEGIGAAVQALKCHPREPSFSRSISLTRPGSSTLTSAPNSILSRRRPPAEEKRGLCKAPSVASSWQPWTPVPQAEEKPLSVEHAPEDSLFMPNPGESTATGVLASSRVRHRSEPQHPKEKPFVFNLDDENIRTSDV
T3 sequence (Q9HB21 whole entry R28L/T320A, the tested form may be a part): as the sequence (Q9HB21 whole entry T320A, the tested form may be a part) above, with R28L counted along it
T2 sequence (Q9ERS5 whole entry, the tested form may be a part): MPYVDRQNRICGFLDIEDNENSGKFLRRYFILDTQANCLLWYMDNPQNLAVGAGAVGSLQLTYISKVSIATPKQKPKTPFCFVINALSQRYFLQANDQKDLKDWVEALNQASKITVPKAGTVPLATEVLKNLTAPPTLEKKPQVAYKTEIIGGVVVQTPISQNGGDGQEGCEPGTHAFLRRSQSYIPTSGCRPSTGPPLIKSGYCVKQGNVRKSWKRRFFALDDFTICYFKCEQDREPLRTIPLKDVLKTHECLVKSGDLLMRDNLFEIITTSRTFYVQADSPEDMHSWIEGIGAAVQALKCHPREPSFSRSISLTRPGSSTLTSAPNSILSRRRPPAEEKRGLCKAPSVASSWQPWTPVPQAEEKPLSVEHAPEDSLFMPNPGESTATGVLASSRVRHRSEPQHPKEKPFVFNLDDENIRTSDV

As for `CCCCCCCCCCCCCCCC(=O)OC[C@H](COP(=O)(O)O[C@H]1[C@H](O)[C@@H](O)[C@H](OP(=O)(O)O)[C@@H](OP(=O)(O)O)[C@H]1O)OC(=O)CCCCCCCCCCCCCCC` [PtdIns(3,4)P2], the Kd in test [1] was 30 nM; in test [2], 30 nM; in test [3], 28 nM; in test [4], 5 nM and ~5 nM. Besides, the phosphoinositide binding result in the test on GST-DAPP1 was “binds”.

(Values after US20040106148A1, “Polypeptides” (priority 2000, published 2004).)
